What was measured:
Assay type in all cases: functional, cell-based
A549 = test: Cytotoxicity against human A549 cells incubated for 48 hrs by MTT assay; settings: A549, 48 h
MCF7 = test: Cytotoxicity against human MCF7 cells incubated for 48 hrs by MTT assay; settings: MCF7, 48 h
KB = test: Cytotoxicity against human KB cells incubated for 48 hrs by MTT assay

SMILES | IC50 (A549) | IC50 (MCF7) | IC50 (KB)
COc1cc(O)c2c(c1)C(=O)C1=C(COC(C)=C1)C2=O | > 40 µM | > 40 µM | > 40 µM
COc1cc(O)c2c(c1)[C@@H](O)[C@@H]1C[C@@H](C)OC[C@H]1C2=O | > 40 µM | > 40 µM | > 40 µM
COc1cc(O)c2c(c1)C(=O)C1=C(C2=O)C(O)OC(C)=C1 (stereo not drawn) [ASCOMYCONE B] | > 40 µM | > 40 µM | > 40 µM
COc1cc(O)c2c(c1)C(=O)C1=C(C2=O)[C@](C)(OC)OCC1 | 28.2 µM | 11.6 µM | 16.6 µM
COc1cc(O)c2c(c1)C(=O)C(CC(C)=O)=C(C)C2=O | > 40 µM | > 40 µM | > 40 µM
COc1cc(O)c2c(c1)C(=O)C1=C(C2=O)[C@@](C)(OC)OCC1 | 28.2 µM | 11.6 µM | 16.6 µM
COc1cc(C)cc(O)c1 | > 40 µM | > 40 µM | > 40 µM
COc1cc(O)c2c(c1)C(=O)C1=C(C2=O)C(OC)OC(C)=C1 (stereo not drawn) [ASCOMYCONE A] | > 40 µM | > 40 µM | > 40 µM
COc1cc(O)c2c(c1)[C@H](O)[C@@H]1C[C@H](C)OC[C@H]1C2=O | > 40 µM | > 40 µM | > 40 µM
COc1cc(O)c2c(c1)[C@H](O)[C@H](C)CC2=O | > 40 µM | > 40 µM | > 40 µM
COc1cc(O)c2c(c1)C(=O)C1=C(COC(C)(O)C1)C2=O (stereo not drawn) | > 40 µM | > 40 µM | > 40 µM

Source: ChEMBL document CHEMBL4627395, “Cytotoxic Heptaketides from the Endolichenic Fungus Ulospora bilgramii” (J Nat Prod, 2020)
